# Measurements reported in patent US6013283A (priority 1997, dated 2000).
# Assay: Water solubility (dissolution in water)
# Experimental: Stability of this compound was determined by dissolving small amounts in water, pH 7.8 phosphate buffer and methanol.
# The stability of the product is determined by dissolving in deionized water and pH 7.26 phosphate buffer.
compound,measurement,value
"Nc1c2c(nc3ccccc13)CCCC2 [Tacrine, tacrine]",WATER SOLUBILITY (in words),Insoluble
